Assay results as given in PubChem BioAssay (NCI).
Values joined by “and” are separate entries in the source; they are usually repeats but may differ in a detail not shown here. Equal values may be shown once.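 Results reflect a 48-hour exposure of cells in 96-well plates to compound at five concentrations. GI50 is the concentration that inhibits growth by half. The concentration for full growth arrest is given as TGI.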

Key:
Test in all cases: DTP human tumour cell line panel, 48 h
786-0 renal = system: 786-0 renal
COLO 205 colon = system: COLO 205 colon
HCT-15 colon = system: HCT-15 colon
KM12 colon = system: KM12 colon
M14 melanoma = system: M14 melanoma
MDA-MB-231 breast = system: MDA-MB-231 breast
MDA-N = system: MDA-N
PC-3 prostate = system: PC-3 prostate
SF-268 CNS = system: SF-268 CNS
SF-295 CNS = system: SF-295 CNS
SK-OV-3 ovarian = system: SK-OV-3 ovarian
SW-620 colon = system: SW-620 colon

SMILES | TGI (786-0 renal) | TGI (COLO 205 colon) | TGI (HCT-15 colon) | TGI (KM12 colon) | TGI (M14 melanoma) | TGI (MDA-MB-231 breast) | TGI (MDA-N) | TGI (PC-3 prostate) | TGI (SF-268 CNS) | TGI (SF-295 CNS) | TGI (SK-OV-3 ovarian) | TGI (SW-620 colon) | GI50 (COLO 205 colon) | GI50 (KM12 colon) | GI50 (SF-268 CNS) | GI50 (SF-295 CNS) | GI50 (SK-OV-3 ovarian) | GI50 (SW-620 colon)
CC(C)(C)c1cc2c(O)c(c1)Cc1cc(C(C#N)(Cc3ccc4ccccc4c3)Cc3ccc4ccccc4c3)cc(c1O)Cc1cc(C(C)(C)C)cc(c1O)Cc1cc(C(C#N)(Cc3ccc4ccccc4c3)Cc3ccc4ccccc4c3)cc(c1O)C2 | > 100 µM | > 100 µM | > 100 µM | > 100 µM | > 100 µM | > 100 µM | > 100 µM | > 100 µM | > 100 µM | > 100 µM | > 100 µM | > 100 µM |  |  |  |  |  | 
Cc1cccc(CC(Cc2c(C)cccc2C(=O)O)C(=O)O)c1 (stereo not given) | > 100 µM | > 100 µM | > 100 µM | > 100 µM | > 100 µM | > 100 µM | > 100 µM | > 100 µM | > 100 µM | > 100 µM | > 100 µM | > 100 µM |  |  |  |  |  | 
CC1=CCC2C3(C)CCC2(C(C)C)C1C3 (stereo not given) (tested in a mixture with another compound) | 47.3 µM | 65 µM | 33.3 µM | 36.8 µM | 45.7 µM | 55.6 µM | > 100 µM | > 100 µM | 36.1 µM | 40.3 µM | > 100 µM | 53.7 µM |  |  |  |  |  | 
CCN(CC)CCNC(=O)c1ccc(I)cc1 | > 100 µM | > 100 µM | > 100 µM | > 100 µM | > 100 µM | > 100 µM | > 100 µM | > 100 µM | > 100 µM | > 100 µM | > 100 µM | > 100 µM |  |  |  |  |  | 
Cn1c(-c2cccs2)cc(-c2cccs2)c1-c1ccco1 | > 100 µM | > 77.8 µM | > 100 µM | 22.9 µM | > 84.5 µM | > 100 µM | > 100 µM | > 100 µM | > 100 µM | > 100 µM | > 100 µM | > 100 µM |  |  |  |  |  | 
O=C(Nc1c(C(F)(F)F)cc(-c2ccccc2)[nH]c1=O)N1CCOCC1 | > 100 µM | > 100 µM | > 100 µM | > 100 µM | > 100 µM | > 100 µM | > 100 µM | > 100 µM | > 100 µM | > 100 µM | > 100 µM | > 100 µM |  |  |  |  |  | 
Cc1ccc(S(=O)(=O)N2C[C@](O)(c3ccccc3)[C@H]2C)cc1 | > 100 µM | > 100 µM | > 100 µM | > 100 µM | > 100 µM | > 100 µM | > 100 µM | > 100 µM | > 100 µM | > 100 µM | > 100 µM | > 100 µM |  |  |  |  |  | 
Cc1ccc2c(n1)C(=O)C=CC2=O | 11.4 µM | 4.95 µM | 26.3 µM | 46.2 µM | 32.3 µM | 19.5 µM | 20.3 µM | 31.9 µM | 42.7 µM | 35.7 µM | 49.5 µM | 8.76 µM |  |  |  |  |  | 
CCOC(=O)Cc1csc2[n+]1C(=O)/C(=C\c1cccc(Cl)c1Cl)S2 | 31.2 µM | 20.7 µM | 31.9 µM | 33.5 µM | 85.1 µM | 87.4 µM | 56.6 µM | 37.7 µM | 80.2 µM | 46.5 µM | 43.1 µM | 56.6 µM |  |  |  |  |  | 
[N-]=[N+]=Nc1c(C=O)c(=O)n(-c2ccccc2)c2ccccc12 | 35 µM | 46.5 µM | 46.4 µM | > 100 µM | 34.1 µM | > 100 µM | > 100 µM | 43.8 µM | > 100 µM | > 100 µM | > 100 µM | 7.53 µM |  |  |  |  |  | 
O=C1O[C@H]2[C@H](O)[C@@H](OC(=O)c3cc(O)c(O)c4c3[C@@H]3C1=CC(=O)C(O)(O)C3(O)O4)[C@H](OC(=O)c1cc(O)c(O)c(O)c1)O[C@@H]2CO (stereo not given in full) | > 100 µM | > 100 µM | > 100 µM | > 100 µM | > 100 µM | > 100 µM | > 100 µM | > 100 µM | > 100 µM | > 100 µM | > 100 µM | > 100 µM |  |  |  |  |  | 
COC1C(O)C(C)OC(OC2C(Oc3cccc4c(O)c5c(=O)oc6ccc(C)c7c(=O)oc(c34)c5c67)OC(C)C(O)C2O)C1O (stereo not given) | 4.57 µM | 16 µM and 6.3 µM | 63.6 µM and 34 µM | 16.6 µM and 8.05 µM | 14.8 µM | 8.67 µM | 6.88 µM | 17.8 µM | 11.1 µM and 12.6 µM | 11.9 µM and 4.21 µM | 17.2 µM and 23.3 µM | 63.8 µM and 20.5 µM | 1.74 µM | 2.17 µM | 1.01 µM | 1.12 µM | 3.66 µM | 1.28 µM
NC(=O)NC(=O)c1cccc(CNc2ccc(C(=O)N[C@@H](CCC(=O)O)C(=O)O)cc2)n1 | > 100 µM | > 100 µM | > 100 µM | > 100 µM | > 100 µM | > 100 µM | > 100 µM | > 100 µM | > 100 µM | > 100 µM | > 100 µM | > 100 µM |  |  |  |  |  | 
COC(=O)C1c2c(c3ccccc3n2C(=O)OC)CCN2CCC1C(S(=O)(=O)c1ccccc1)C2=O (stereo not given) | > 100 µM | > 100 µM | > 100 µM | > 100 µM | > 100 µM | > 100 µM | > 100 µM | > 100 µM | > 100 µM | > 100 µM | > 100 µM | > 100 µM |  |  |  |  |  | 
CCN(CC)CCCn1c(=O)c2ccccc2n2c3c(=O)n(C)c(=O)n(C)c3nc12 | 18.6 µM | 20.6 µM | 25.4 µM | 19.8 µM | 25.1 µM | 30.1 µM | 28 µM | 23 µM | 23 µM | 15.6 µM | 14.7 µM | 29.1 µM |  |  |  |  |  | 
COc1ccc(/C=C2\CCC(C)/C(=C\c3ccc(OC)c(OC)c3)C2=O)cc1OC (stereo not given) | 19.4 µM | 54.2 µM | 21.2 µM | 7.04 µM | 31.2 µM | 60.8 µM | > 100 µM | 23.4 µM | 45.1 µM | 23 µM | 42.3 µM | > 100 µM |  |  |  |  |  | 
Cc1cc(-c2nc3ccccc3s2)ccc1N | > 79.6 µM | > 76.9 µM | > 89.3 µM | > 81.2 µM | > 73.5 µM | > 88.2 µM | > 83.6 µM | > 88.8 µM | > 83.8 µM | > 85.3 µM | > 100 µM | > 100 µM |  |  |  |  |  | 
